Data published in PMC6874530, “Structural analysis identifies an escape route from the adverse lipogenic effects of liver X receptor ligands” (Communications Biology, 2019).
Read-outs that look alike come from different tables or passages of the source.

Experiments:
LXRβ LBD = target: T1, LXRβ LBD (Homo sapiens, UniProt P55055); test: differential HDX-MS of LXRβ LBD (apo vs ligand-bound); parameters: human his-tagged LXRβ LBD (216-461); His tag; made in house; host or cells: Escherichia coli BL21(DE3); details: after 30 s of deuterium exchange
T1 sequence (P55055 215-460 limits assumed): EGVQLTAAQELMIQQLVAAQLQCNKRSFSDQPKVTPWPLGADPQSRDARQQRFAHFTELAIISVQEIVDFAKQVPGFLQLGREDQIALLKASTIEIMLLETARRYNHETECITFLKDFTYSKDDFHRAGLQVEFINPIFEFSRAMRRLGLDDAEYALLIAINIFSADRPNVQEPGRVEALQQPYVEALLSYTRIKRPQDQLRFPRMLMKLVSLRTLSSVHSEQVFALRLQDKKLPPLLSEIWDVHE
Method: (§1) Prior to the deuterium incorporation experiments, 10 µM apo LXR was incubated with 10× excess of ligand or equal volume of DMSO for 30 min at room temperature. In the experiments with cofactors, 15× excess of the SRC1 coactivator peptide and the NCOR1 corepressor peptide were added to the ligand-bound or apo proteins, respectively, and incubated for 30 min at room temperature. […] A fully deuterated sample was generated by incubating protein with 4 M guanidine-HCl in D2O for 30 min at 45 °C. Exchange reactions were performed with a CTC PAL sample handling robot (LEAP Technologies). Labeling times were 30, 60, 180, 600, and 1800 s in the kinetics experiments. Differential HDX of a complete compound selection was measured after 30 and 600 s of labeling time points. Reactions were conducted by incubating 4 µl of LXR with 50 µl of D2O buffer (containing 25 mM Tris-HCl (pD 7.6), 50 mM NaCl, 10% glycerol, and 1 mM TCEP). The exchange reaction was stopped by the addition of 50 µl of quench solution (3 M urea, 0.1% TFA) followed by immediate injection into a Enzymate BEH Pepsin 2.1 × 30 mm Column (Waters, UK) for protein digestion (2 min at 24 °C). Peptic digest was further injected on a Waters nanoACQUITY UPLC System where peptides were first desalted by trapping for 3 min on a VanGuard Pre-Column Acquity UPLC BEH C18 (1.7 μm; 2.1 × 5 mm), and then eluted over a 6-min 5–40% (vol/vol) acetonitrile (containing 0.1% formic acid) gradient into a Waters Synapt G2-Si mass spectrometer. Peptide separation was conducted at 0.1 °C. All exchange reactions were performed in triplicates.
(§2) Peptides from three samples of non-deuterated LXR were identified by using the ProteinLynx Global Server (PLGS Waters, UK). Peptides with an intensity of over 5000, a mass error < 5 ppm, and present in at least two of the three data acquisitions were pooled and imported into the DynamX data analysis software (Waters, UK). After a first round of automated spectral processing by using DynamX, each peptide was inspected manually for suitability for further analysis.
(§3) For pairwise comparison, MEMHDX software was used to identify statistically significant changes of deuterium uptake. For all peptides, a value of relative exchange per amino acid was corrected to back exchange. The mean deuteration level per amino acid was calculated by using Matlab (Mathworks)[69] and subsequently mapped onto the crystal structures with PyMOL (Schrodinger LLC). For structural representation, loop modeling with MOE (Chemical Computing Group Inc.) was applied on 2ACL.pdb file for LXRα LBD, and 1PQC.pdb for LXRβ LBD.

LXRα LBD [1] = target: T2, LXRα LBD (Homo sapiens, UniProt Q13133); test: differential HDX-MS of LXRα LBD (apo vs ligand-bound); parameters: Human his-tagged LXRα LBD (200-447); His tag; made in house; host or cells: Escherichia coli BL21(DE3); details: for protection of LXRα H3 from deuterium exchange: after 600 s of deuterium exchange; for stabilization of LXRα H12: HDX-MS
T2 sequence (Q13133 200-447): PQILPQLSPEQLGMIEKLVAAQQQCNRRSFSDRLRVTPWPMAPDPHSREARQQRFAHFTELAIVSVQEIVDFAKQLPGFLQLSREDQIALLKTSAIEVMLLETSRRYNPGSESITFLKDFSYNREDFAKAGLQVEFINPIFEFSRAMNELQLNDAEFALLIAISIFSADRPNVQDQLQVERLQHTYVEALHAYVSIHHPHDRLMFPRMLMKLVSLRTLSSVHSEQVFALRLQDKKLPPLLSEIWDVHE
Method: as §1, §2, §3

LXRα LBD [2] = target: T2, LXRα LBD; test: biochemical
From the text: The compounds were run in triplicate (binding assay) or in quadruplicate (transactivation assay). Standard deviations are indicated for individual experiments run more than once.

LXRβ = target: T3, LXRβ (Homo sapiens, UniProt P55055); test: Gal4 one hybrid reporter gene (transactivation) assay in U2OS cells, LXRβ; type: cell-based; details: for Emax: U2OS, 40 h, read-out: LXRβ transactivation Agonist efficacy, %; for Potency-based LXRβ selectivity over LXRα: Gal4 reporter gene assays
T3 construct: expression vectors pSG5-Gal4-LXRα LBD or pSG5-Gal4-LXRβ LBD; expressed in transfected cells; host or cells: U2OS osteosarcoma cells
T3 sequence (P55055 222-460 limits assumed): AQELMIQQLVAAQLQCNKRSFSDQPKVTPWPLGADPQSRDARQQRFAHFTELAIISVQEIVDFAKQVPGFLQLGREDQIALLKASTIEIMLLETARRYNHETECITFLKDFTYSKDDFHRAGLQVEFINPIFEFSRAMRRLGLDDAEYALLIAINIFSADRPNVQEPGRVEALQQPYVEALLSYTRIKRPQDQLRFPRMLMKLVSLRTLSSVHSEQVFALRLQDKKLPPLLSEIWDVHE
Method: Transactivation assays were performed in U2OS osteosarcoma cells (ATCC, USA). […] Ligands were added at ten different concentrations 2 h post transfection and the luciferase activity was measured after 40 h.

LXRα/NCOR1 = target: T4, LXRα/NCOR1 (Homo sapiens, UniProt Q13133); test: SPR cofactor recruitment, LXRα LBD binding to immobilized NCOR1 corepressor peptide
T4 construct: Human his-tagged LXRα LBD (200-447); His tag; made in house; host or cells: Escherichia coli BL21(DE3)
T4 sequence (Q13133 200-447): T2 sequence (Q13133 200-447)
T4 sequence (O75376 with tags, fused parts or gaps partner limits assumed): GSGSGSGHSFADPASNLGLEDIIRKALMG
Method: The peptides carried an N-terminal biotin for surface immobilization on a Xantec NID200M Sensor Chip (NTA-derivatized carboxymethyldextran hydrogel, XanTec bioanalytics GmbH) preloaded with Ni^2+. […] LXRα and LXRβ LBD proteins were serially diluted in SPR running buffer (10 mM HEPES, 150 mM NaCl, and 0.05% Tween 20, pH 7.4) to a broad range of concentrations (0.02–10 µM) and equilibrated with tested compound (50 μM) prior to the sample injection over a modified biosensor surface. LXR-ligand complexes were injected in quick succession for 120 s over immobilized cofactor peptides and reference surfaces along with blank samples followed by 900 s of dissociation. The binding level at equilibrium was monitored for all samples, including the reference sample that contained DMSO at equal amount as tested compounds. All data were normalized to this reference sample in order to quantify the effects on peptide binding without bias by receptor instability. The surface was regenerated with 0.5% (w/v) SDS after each injection. Binding responses in the steady-state region of the sensorgrams were plotted against LXR LBD concentration to determine the overall equilibrium-binding affinity by fitting the data to nonlinear regression (Prism 8; GraphPad).

[3] = Receptor-binding affinity pKi LXRα, value (SD, n independent experiments)
[4] = U2OS cells, Gal4-LXRβ LBD, value (SD, n), read-out: LXRβ transactivation pEC50 (converted)
[5] = maximal activation compared with a reference full agonist, value (SD, n)

Row | SMILES | protection of LXRβ H11–H12 from deuterium exchange (LXRβ LBD) | protection of LXRα H3 from deuterium exchange (LXRα LBD [1]) | Ki (LXRα LBD [2]; [3]) | EC50 (LXRβ; [4]) | Emax (LXRβ; [5]) | also measured
1 | O=C1C(Cc2ccccc2)=C(NCCCCc2ccccc2)C(=O)N1Cc1ccccc1 [AZ8] | 17-25% | no effect | 195 nM | 1290 nM | 102% | 
2 | CN(C)C(=O)c1cnc(N2CC[C@@H](CNC3=C(c4ccccc4)S(=O)(=O)N(C(C)(C)C)C3=O)C2)c(Cl)c1 [AZ5] |  | no effect | 2140 nM | 97.7 nM | 66.5% | stabilization of LXRα H12 (LXRα LBD [1]): did not stabilize LXRα H12; Potency-based LXRβ selectivity over LXRα (LXRβ): 11 fold
3 | CN(C)C(=O)c1cccc(CCCCNC2=C(c3ccccc3)S(=O)(=O)N(C(C)(C)C)C2=O)c1 [AZ1] |  |  | 91.2 nM | 30.9 nM | 76% | 
4 | CC(CCCc1cccc(S(N)(=O)=O)n1)NC1=C(c2ccccc2)S(=O)(=O)N(C(C)C)C1=O (stereo not drawn) [AZ2] |  |  | 91.2 nM | 8.71 nM | 97.3% | Potency-based LXRβ selectivity over LXRα (LXRβ): 11 fold
5 | CC(C)N1C(=O)C(NCCCCc2cccc(S(N)(=O)=O)n2)=C(c2ccccc2)S1(=O)=O [AZ3] | 17-25% |  | 501 nM | 75.9 nM | 94.3% | Potency-based LXRβ selectivity over LXRα (LXRβ): 9 fold; EC50 (LXRβ; read-out: potency in LXRβ-based assay): < 100 nM
6 | CC(C)(C)N1C(=O)C(Cc2ccccc2)=C(NC2CCN(c3ncc(CC(=O)O)cc3Cl)CC2)C1=O [AZ7] |  |  | 1070 nM | 537 nM | 104% | Ki (LXRα LBD [2]; binding affinity to LXRα): 1000 nM
7 | CC(C)(O)c1cn(-c2ccc(-c3cc(F)c(CO)c(S(C)(=O)=O)c3)cc2F)c(C(C)(C)c2c(Cl)cccc2Cl)n1 [BMS-852927] |  | 60% |  | > 20000 nM |  | effect on the LXRα/NCOR1 interaction (LXRα/NCOR1): enhanced the interaction; stabilization of LXRα H12 (LXRα LBD [1]): did not stabilize LXRα H12; agonist activity in the Gal4 reporter gene assay, LXRβ (LXRβ): No signal was observed
8 | CC(C)(C)N1C(=O)C(NC2CCN(c3ncc(CC(=O)O)cc3Cl)CC2)=C(c2ccccc2)S1(=O)=O [AZ4] |  |  | 355 nM | 148 nM | 110% | 
9 | O=C(O)Cc1ccc(CNC(=O)[C@@H]2Cc3ccccc3N2S(=O)(=O)c2ccc(-c3ccccc3C(F)(F)F)cc2)cc1 [F1, reference compound] |  |  | 10.2 nM | 3890 nM | 105% | stabilization of LXRα H12 (LXRα LBD [1]): did not stabilize LXRα H12; Ki (LXRα LBD [2]; binding affinity to LXRα): 10 nM
10 | Fc1ccc(-c2c3cccc(C(F)(F)F)c3nn2Cc2ccc(F)cc2Cl)cc1 [LXR-623, reference compound] |  | no effect |  |  |  | Ki (LXRα LBD [2]): 490 nM; EC50 (LXRβ): 1860 nM; Emax (LXRβ): 94.3%
11 | O=S(=O)(c1ccccc1)N(CC(F)(F)F)c1ccc(C(O)(C(F)(F)F)C(F)(F)F)cc1 [T0901317, reference compound] | 17-25% |  |  |  |  | LXRβ transactivation Agonist efficacy, % (LXRβ; [5]): 95.5 (6.4, n = 2) %
12 | CC(C)N1C(=O)C(NC2CCN(c3ncc(CC(=O)O)cc3Cl)CC2)=C(c2ccccc2)S1(=O)=O [AZ6] | 17-25% |  | 1580 nM | 617 nM | 95.3% | 
13 | O=C(O)Cc1cccc(OCCCN(Cc2cccc(C(F)(F)F)c2Cl)CC(c2ccccc2)c2ccccc2)c1 [GW3965, reference compound] |  |  | 158 nM | 347 nM |  | Emax (LXRβ): 77.1%
